Data as given in patent publication US8188130B1, “Anti-cancer hydantoin compounds and methods” (University of Louisiana at Monroe, priority 2008, dated 2012).
Where no end group is shown, it is not given here.

Legend:
[1] = tested on: PC-3M cells; test: MTT assay, cell proliferation; assay type: cell-based
Procedure: MTT assays were used to measure effect of the tested drugs on tumor growth. MTT assays were performed on a control group, a calcitonin (CT) stimulated group, a group treated with compound 1 (drug treated), and a group that was both drug treated and CT stimulated. Conditions for the MTT assay were as follows: Exponentially growing cells were plated in a 96-well plate at a density of 8×10^3 cells per well, and cultured for 24 hours in complete growth medium (RPMI 1640 containing 10% fetal bovine, 10 mM HEPES, 4 mM L-glutamine, 100 IU/ml penicillin G and 100 μg/ml streptomycin). The complete growth medium was then replaced with 100 μl of basal incubation medium (RPMI 1640 containing 0.1% BSA, 10 mM HEPES, 4 mM L-glutamine, 100 IU/ml penicillin G and 100 μg/ml streptomycin). The cells were then treated with test compounds (dissolved in basal incubation medium), and the culture was continued at 37° C. under 5% CO2 for 24 hours. The cells were then treated with MTT solution at 37° C. for 4 h, and the color reaction was stopped with the stop solution (10% sodium dodecyl sulfate solution in 0.01 M hydrochloric acid) (100 μl/well). The incubation at 37° C. was continued until the formazan product was completely dissolved. Absorbance of the samples was determined at 595 nm with an ELISA plate reader (Bio-Rad, Hercules, Calif.).

[2] = tested on: PC-3M cells; test: Invasion assay (Matrigel Boyden invasion chambers); assay type: cell-based; details: 24 hours, FIG. 2
Procedure: Invasion assays were used to identify compounds with antimetastatic activity. Invasion assays were performed on a control group, a calcitonin (CT) stimulated group, a drug treated group and a group that was both drug treated and CT stimulated. The assay employed two-compartmented Boyden invasion chambers sold under the trademark MATRIGEL. The assay conditions were as follows: exponentially growing PC cells were serum-starved for 24 hours with basal incubation medium. Serum-starved cells were then seeded at a density of 25×10^3 cells/well in the upper insert of the invasion chamber. The lower chamber received the chemoattractant medium, which consisted of 90% basal RPMI medium and 10% conditioned medium from the cultures of PC-3M cells expressing constitutively active Gsa protein as described in Chien, J., Wong, E., Nikes, E., Noble, M. J., Pantazis, C. G., and Shah, G. V. (1999) Oncogene 18(22), 3376-3382 which is incorporated herein by reference. The incubations were carried out for 24 hours, after which the basement matrix protein or Matrigel™ (along with non-invading cells) was scraped off with cottonswabs, and the outer side of the insert was fixed and stained using hemaoxylin staining sold under the trademark Diff Quick (Dade Behring Diagnostics, Aguada, PR). The number of cells migrated on the outer bottom side of the insert were counted under the microscope in six or more randomly selected fields (magnification: 100×). The final results were expressed as mean+/−SEM number of invaded cells per 100× field. Each experiment was done in triplicates, and the experiment was repeated twice. […] To correct this, the growth rate was determined for PC-3M cells under identical culture conditions. 25×10^3 cells were plated at hourly intervals in six-well dishes and cultured for 1-24 hours. Mean percent increase in the cell number was determined by counting the net increase in the number of cells. […] This correction was applied to the results of invasion assays.

[3] = tested on: PC-3M cells over expressing CT; test: Xenograft testing, orthotopic implant in athymic nude mice; assay type: in vivo; details: compound 1 200 μg/day, compound 2 40 μg/day; for average life-expectancy: intraperitoneally every other day, untreated 54 days, ± SEM; for tumor growth in secondary organs (metastases): intraperitoneally, FIG. 5
Excerpt: In vivo xenograft testing was done on athymic nude mice to measure the anti-cancer effect of various compounds. PC-3M prostate cells were used that contain a red fluorescence protein from gene transfer to facilitate tracking of cancer cells. The red fluorescence protein used is described in Yang, M., Baranov, E., Wang, J. W., Jiang, P., Wang, X., Sun, F. X., Bouvet, M., Moossa, A. R., Penman, S., and Hoffman, R. M. (2002) Proc Natl Acad Sci U S A 99(6), 3824-3829, which is incorporated herein by reference. 1×10^5 PC-3M cells over expressing CT were implanted in 30 day old mice orthotopically, that is the prostate cancer cells were implanted into the prostate of the mice. The cells were then allowed to grow in their native environment allowing for metastasis into other organs such as the lymph nodes, bones and lungs. The mice, other than the control mice were injected intraperitoneally every other day. Dosing rates were 200 μg/day or 5 μg/g body weight/day-intrapertonieally for compound 1 and 40 μg/day or 1 μg/g body weight/day-intraperitoneally for compound 2. Tumor growth was measured by fluorescence imaging and the mice were sacrificed upon signs of morbidity such as immobility and high tumor burden.

[4] = tested on: PC-3M prostate cancer cell line; test: In vitro metastasis assay (spheroid disaggregation, radial migration); assay type: cell-based
Procedure: In vitro metastasis assays were conducted to determine the anti-metastatic effect of various compounds. This assay involves preparation of spheroids approximately […] in diameter of cancer cells cultured on an extracellular matrix. In 24 hours, only metastatic cells disaggregate from the spheroid and start radial migration. Thus, lower measurements of radial migration are indicative of greater effectiveness of the drug/compound. Spheroids were prepared from single cell suspension of prostate cell lines as described before in Gondi, C. S., Lakka, S. S., Yanamandra, N., Olivero, W. C., Dinh, D. H., Gujrati, M., Tung, C. H., Weissleder, R., and Rao, J. S. (2004) Cancer Res 64(12), 4069-4077 and in Thomas, S., Chiriva-Internati, M., and Shah, G. V. (2007) Clin Exp Metastasis 24(5), 363-377 both of which are incorporated herein by reference. 5×10^4/ml cells in RPMI 1640 serum-free medium were placed on 96-well low-attachment tissue culture plates. The plates were rocked on gyrotory shaker in a CO2 incubator at 37° C. for 2 days, at the end of which the spheroids measuring 150-300 μm in diameter (˜4×10^4 cells/spheroid) were formed. A single spheroid was then placed in the center of each well of extracellular-matrix-coated 24-well microplate in […] of serum-free medium. From previous studies, it was determined that 1 hour was an appropriate time for spheroids to begin adhering to an extracellular matrix. Thus, t=0 was set as 1 hour from initial plating, so that if the plate was not disturbed, the spheroids would not move from their location at the time of plating. Spheroids were digitally photographed at t=0, cultured at 37° C. for 48 h and then re-photographed. […] The diameter of the area covered with cells migrated from the spheroids was measured in a microscope calibrated with a stage and ocular micrometer. The radial distance of migration was calculated after subtraction of the mean initial spheroidal diameter at t=0.

[5] = tested on: prostate tumors; test: Testing of transgenic LPB-Tag mice that spontaneously form prostate tumors; assay type: in vivo; details: 80 μg/week intraperitoneally
Excerpt: In vivo testing was done on transgenic mice that spontaneously form prostate tumors to measure the anti-cancer effect of compound 2. The mice used were LPB-Tag mice of the type described in Kasper, S., and Smith, J. A., Jr. (2004) J Urol 172(1), 12-19 which is incorporated herein by reference. The mice were originally developed by Dr. Robert Matusik of Vanderbilt University. LPB-Tag mice are generated by the targeted expression of SV40 large T-antigen (Tag) in the prostate using androgen-regulated, prostate-specific large probasin (LPB) gene promoter. The mice develop PIN lesions as well as extensive prostate adenocarcinomas in adulthood. The mice had their p53 gene knocked out and T-antigen selectively targeted to the prostate. Therefore, the mice begin to develop prostate tumors spontaneously as they approached the age of 50 days (adulthood), the tumors gradually grew and became very large at the age of 90 days. Mice were sacrificed around day 90 and their prostates and other organs were harvested for studying tumor characteristics and histology. Compound 2 was delivered at a dosing of 80 μg/week or 2 μg/g body weight/week-intraperitoneally. […] These tests indicate that compounds of this invention may be used as a chemopreventive for high risk patients.

[6] = tested on: PC-3M cells; test: Growth rate of PC-3M cells by cell counting (correction for invasion assay); assay type: cell-based; details: vehicle control=1; cultured 1-24 hours
Procedure: Invasion assays were used to identify compounds with antimetastatic activity. Invasion assays were performed on a control group, a calcitonin (CT) stimulated group, a drug treated group and a group that was both drug treated and CT stimulated. The assay employed two-compartmented Boyden invasion chambers sold under the trademark MATRIGEL. The assay conditions were as follows: exponentially growing PC cells were serum-starved for 24 hours with basal incubation medium. Serum-starved cells were then seeded at a density of 25×10^3 cells/well in the upper insert of the invasion chamber. The lower chamber received the chemoattractant medium, which consisted of 90% basal RPMI medium and 10% conditioned medium from the cultures of PC-3M cells expressing constitutively active Gsa protein as described in Chien, J., Wong, E., Nikes, E., Noble, M. J., Pantazis, C. […] The number of cells migrated on the outer bottom side of the insert were counted under the microscope in six or more randomly selected fields (magnification: 100×). The final results were expressed as mean+/−SEM number of invaded cells per 100× field. […] To correct this, the growth rate was determined for PC-3M cells under identical culture conditions. […] Mean percent increase in the cell number was determined by counting the net increase in the number of cells. […]

| Compound | rate of CT stimulated cell proliferation ([1]; 50 μM, 24 hours, CT stimulated, FIG. 1) | rate of baseline cell proliferation ([1]; 50 μM, 24 hours, baseline (no CT), FIG. 1) | dosage rate until which no cytotoxic effect on PC-3M cells ([1]; PC-3M cells) | baseline invasion ([2]; 50 μM, no CT) | CT-stimulated invasion ([2]; 50 μM, CT 50 nM) | average life-expectancy [3] | tumor growth in secondary organs (metastases) [3] | dose until which no cytotoxicity [4] | disaggregation and migration of cells from spheroids ([4]; 50 μM) | effective dose range ([4]; multiple doses, distances migrated by the cells) | increased survival [5] | decrease of tumor size measured at necropsy compared to diluents treated mice ([5]; sacrificed around day 90) | relative CT-induced increase in cell number, pooled results of all time points [6] | invasion of PC-3M cells ([2]; CT 50 nM) |
| --- | --- | --- | --- | --- | --- | --- | --- | --- | --- | --- | --- | --- | --- | --- |
| O=C1NC(=O)/C(=C/c2ccc(O)cc2)N1 [compound 1, (Z)-5-(4-hydroxybenzylidene)imidazolidine-2,4-dione] | moderate but significant decline | moderate but significant decline | ≥ 500 µM | did not affect baseline invasion | almost abolished CT-stimulated invasion | 61.44 days | completely prevented tumor growth in most secondary organs | ≥ 500 µM | did not disaggregate or migrate | 25 to 200 µM |  |  |  |  |
| CCSc1ccc(/C=C2\NC(=O)NC2=O)cc1 [compound 2, (Z)-5-(4-S-ethylbenzylidene)imidazolidine-2,4-dione] |  |  |  |  |  | 66 ± 1 days | completely prevented tumor growth in most secondary organs |  |  |  | at least 1 week | 62% |  |  |
| calcitonin (CGNLSTCMLGTYTQDFNKFHTFPQTAIGVGAP; ends and bridges not checked; cysteine pairing not given here; UniProt P01258 85-116, looked up) [CT, calcitonin (CT), used to stimulate proliferation, invasion and metastasis of PC-3M cells, reference compound] |  |  |  |  |  |  |  |  |  |  |  |  | 1.19 | significantly increased |
